According to patent publication US7282504B2, “Kinase inhibitors” (Amgen Inc., priority 2000, dated 2007):

Tests used:
Type in all cases: biochemical
Tek-1 = biological target: T1, Tek-1 (Homo sapiens, UniProt Q02763); assay: Kinase inhibition, 33P transfer to plate-bound substrate: Tek-1
T1 construct: Kinases are expressed as either kinase domains or full-length constructs; made in house
Excerpt: (§1) The inhibitor compounds described herein are screened in the following manner. Kinases suitable for use in the following protocol to determine kinase activity of the compounds described herein include, but are not limited to: Lck, Lyn, Src, Fyn, Syk, Zap-70, Itk, Tec, Btk, EGFR, ErbB2, Kdr, Flt-1, Flt-3, Tek, c-Met, InsR, and AKT.
(§2) Kinases are expressed as either kinase domains or full-length constructs fused to glutathione S-transferase (GST) or polyHistidine tagged fusion proteins in either E. coli or Baculovirus-High Five expression systems. They are purified to near homogeneity by affinity chromatography essentially as previously described (Lehr et al., 1996; Gish et al., 1995). In some instances, kinases are co-expressed or mixed with purified or partially purified regulatory polypeptides prior to measurement of activity.
(§3) Kinase activity and inhibition are measured essentially by established protocols (Braunwalder et al., 1996). Briefly, The transfer of ^33PO4 from ATP to the synthetic substrates poly(Glu, Tyr) 4:1 or poly(Arg, Ser) 3:1 attached to the bioactive surface of microtiter plates serves as the basis to evaluate enzyme activity. After an incubation period, the amount of phosphate transferred is measured by first washing the plate with 0.5% phosphoric acid, adding liquid scintillant, and then counting in a liquid scintillation detector. The IC50 is determined by the concentration of compound that causes a 50% reduction in the amount of ^33P incorporated onto the substrate bound to the plate.

Hck-1 = biological target: T2, Hck-1 (Homo sapiens, UniProt P08631); assay: Kinase inhibition, 33P transfer to plate-bound substrate: Hck-1
T2 construct: Kinases are expressed as either kinase domains or full-length constructs; made in house
Excerpt: as §1, §2
as §3, with “The IC50 is determined by the concentration of compound that causes a 50% reduction in the amount of ^33P incorporated onto the substrate bound to the plate.” left out

ErbB2-1 = biological target: T3, ErbB2-1 (Homo sapiens, UniProt P04626); assay: Kinase inhibition, 33P transfer to plate-bound substrate: ErbB2-1
T3 construct: Kinases are expressed as either kinase domains or full-length constructs; made in house
Excerpt: as §1, §2, §3

Lck-2 = biological target: T4, Lck-2 (Homo sapiens, UniProt P06239); assay: Kinase inhibition, 33P transfer to plate-bound substrate: Lck-2
T4 construct: Kinases are expressed as either kinase domains or full-length constructs; made in house
Excerpt: as §1, §2, §3

Akt3-1 = biological target: T5, Akt3-1 (Homo sapiens, UniProt Q9Y243); assay: Kinase inhibition, 33P transfer to plate-bound substrate: Akt3-1
T5 construct: Kinases are expressed as either kinase domains or full-length constructs; made in house
Excerpt: as §1, §2, §3

ErbB4-1 = biological target: T6, ErbB4-1 (Homo sapiens, UniProt Q15303); assay: Kinase inhibition, 33P transfer to plate-bound substrate: ErbB4-1
T6 construct: Kinases are expressed as either kinase domains or full-length constructs; made in house
Excerpt: as §1, §2, §3

Src-1 = biological target: T7, Src-1 (Homo sapiens, UniProt P12931); assay: Kinase inhibition, 33P transfer to plate-bound substrate: Src-1
T7 construct: Kinases are expressed as either kinase domains or full-length constructs; made in house
Excerpt: as §1, §2, §3

EGFR-1 = biological target: T8, EGFR-1 (Homo sapiens, UniProt P00533); assay: Kinase inhibition, 33P transfer to plate-bound substrate: EGFR-1
T8 construct: Kinases are expressed as either kinase domains or full-length constructs; made in house
Excerpt: as §1, §2, §3

Itk-1 = biological target: T9, Itk-1 (Homo sapiens, UniProt Q08881); assay: Kinase inhibition, 33P transfer to plate-bound substrate: Itk-1
T9 construct: Kinases are expressed as either kinase domains or full-length constructs; made in house
T9 sequence (Q08881 1-620): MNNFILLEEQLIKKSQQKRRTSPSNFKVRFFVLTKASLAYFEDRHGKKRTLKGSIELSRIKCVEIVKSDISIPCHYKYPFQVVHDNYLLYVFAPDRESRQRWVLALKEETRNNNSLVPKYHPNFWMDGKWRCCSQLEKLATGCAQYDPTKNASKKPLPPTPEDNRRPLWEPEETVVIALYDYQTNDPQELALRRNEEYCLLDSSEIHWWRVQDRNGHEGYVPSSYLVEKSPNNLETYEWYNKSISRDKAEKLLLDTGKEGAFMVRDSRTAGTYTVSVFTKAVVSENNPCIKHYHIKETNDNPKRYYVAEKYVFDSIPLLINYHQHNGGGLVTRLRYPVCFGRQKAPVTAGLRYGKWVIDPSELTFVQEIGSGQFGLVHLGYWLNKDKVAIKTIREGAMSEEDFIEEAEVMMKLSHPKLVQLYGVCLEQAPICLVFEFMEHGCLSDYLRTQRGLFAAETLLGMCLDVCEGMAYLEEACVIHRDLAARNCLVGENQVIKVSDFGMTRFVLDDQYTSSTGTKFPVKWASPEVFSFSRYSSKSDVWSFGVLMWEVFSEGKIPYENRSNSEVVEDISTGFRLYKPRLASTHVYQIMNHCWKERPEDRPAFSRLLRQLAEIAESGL
Excerpt: as §1, §2, §3

FGFR1-1 = biological target: T10, FGFR1-1 (Homo sapiens, UniProt P11362); assay: Kinase inhibition, 33P transfer to plate-bound substrate: FGFR1-1
T10 construct: Kinases are expressed as either kinase domains or full-length constructs; made in house
Excerpt: as §1, §2, §3

Zap-1 = biological target: T11, Zap-1 (Homo sapiens, UniProt P43403); assay: Kinase inhibition, 33P transfer to plate-bound substrate: Zap-1
T11 construct: Kinases are expressed as either kinase domains or full-length constructs; made in house
T11 sequence (P43403 1-619): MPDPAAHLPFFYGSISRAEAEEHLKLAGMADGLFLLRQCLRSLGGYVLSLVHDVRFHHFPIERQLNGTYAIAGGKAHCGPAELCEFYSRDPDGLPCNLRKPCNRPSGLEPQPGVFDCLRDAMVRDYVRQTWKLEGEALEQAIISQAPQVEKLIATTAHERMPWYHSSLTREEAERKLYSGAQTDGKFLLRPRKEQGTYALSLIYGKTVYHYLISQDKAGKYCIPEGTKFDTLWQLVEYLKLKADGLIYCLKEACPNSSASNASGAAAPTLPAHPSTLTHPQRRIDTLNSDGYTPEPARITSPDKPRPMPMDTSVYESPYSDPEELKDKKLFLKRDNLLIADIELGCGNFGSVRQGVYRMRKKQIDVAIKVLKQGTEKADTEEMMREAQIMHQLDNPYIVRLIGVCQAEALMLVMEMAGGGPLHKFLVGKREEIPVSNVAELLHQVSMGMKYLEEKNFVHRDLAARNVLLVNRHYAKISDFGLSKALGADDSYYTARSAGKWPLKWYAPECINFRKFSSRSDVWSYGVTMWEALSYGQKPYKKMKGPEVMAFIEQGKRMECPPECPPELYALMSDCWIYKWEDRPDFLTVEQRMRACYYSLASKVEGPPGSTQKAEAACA
Excerpt: as §1, §2, §3

IGFR-1 = biological target: T12, IGFR-1 (Homo sapiens, UniProt P08069); assay: Kinase inhibition, 33P transfer to plate-bound substrate: IGFR-1
T12 construct: Kinases are expressed as either kinase domains or full-length constructs; made in house
Excerpt: as §1, §2, §3

KDR-1 = biological target: T13, KDR-1 (Homo sapiens, UniProt P35968); assay: Kinase inhibition, 33P transfer to plate-bound substrate: KDR-1
T13 construct: Kinases are expressed as either kinase domains or full-length constructs; made in house
Excerpt: as §1, §2, §3

PDGFRB = biological target: T14, PDGFRB (Homo sapiens, UniProt P09619); assay: Kinase inhibition, 33P transfer to plate-bound substrate: PDGFRB
T14 construct: Kinases are expressed as either kinase domains or full-length constructs; made in house
Excerpt: as §1, §2, §3

Met-1 = biological target: T15, Met-1 (Homo sapiens, UniProt P08581); assay: Kinase inhibition, 33P transfer to plate-bound substrate: Met-1
T15 construct: Kinases are expressed as either kinase domains or full-length constructs; made in house
Excerpt: as §1, §2, §3

Flt1-1 = biological target: T16, Flt1-1 (Homo sapiens, UniProt P17948); assay: Kinase inhibition, 33P transfer to plate-bound substrate: Flt1-1
T16 construct: Kinases are expressed as either kinase domains or full-length constructs; made in house
Excerpt: as §1, §2, §3

Ret-1 = biological target: T17, Ret-1 (Homo sapiens, UniProt P07949); assay: Kinase inhibition, 33P transfer to plate-bound substrate: Ret-1
T17 construct: Kinases are expressed as either kinase domains or full-length constructs; made in house
Excerpt: as §1, §2, §3

Lck-1 = biological target: T18, Lck-1 (Homo sapiens, UniProt P06239); assay: Kinase inhibition, 33P transfer to plate-bound substrate: Lck-1
T18 construct: Kinases are expressed as either kinase domains or full-length constructs; made in house
Excerpt: as §1, §2, §3

Lyn-1 = biological target: T19, Lyn-1 (Homo sapiens, UniProt P07948); assay: Kinase inhibition, 33P transfer to plate-bound substrate: Lyn-1
T19 construct: Kinases are expressed as either kinase domains or full-length constructs; made in house
Excerpt: as §1, §2, §3

InsR-1 = biological target: T20, InsR-1 (Homo sapiens, UniProt P06213); assay: Kinase inhibition, 33P transfer to plate-bound substrate: InsR-1
T20 construct: Kinases are expressed as either kinase domains or full-length constructs; made in house
Excerpt: as §1, §2, §3

Fyn-1 = biological target: T21, Fyn-1 (Homo sapiens, UniProt P06241); assay: Kinase inhibition, 33P transfer to plate-bound substrate: Fyn-1
T21 construct: Kinases are expressed as either kinase domains or full-length constructs; made in house
Excerpt: as §1, §2, §3

T2 sequence (P08631 whole entry, the tested form may be a part): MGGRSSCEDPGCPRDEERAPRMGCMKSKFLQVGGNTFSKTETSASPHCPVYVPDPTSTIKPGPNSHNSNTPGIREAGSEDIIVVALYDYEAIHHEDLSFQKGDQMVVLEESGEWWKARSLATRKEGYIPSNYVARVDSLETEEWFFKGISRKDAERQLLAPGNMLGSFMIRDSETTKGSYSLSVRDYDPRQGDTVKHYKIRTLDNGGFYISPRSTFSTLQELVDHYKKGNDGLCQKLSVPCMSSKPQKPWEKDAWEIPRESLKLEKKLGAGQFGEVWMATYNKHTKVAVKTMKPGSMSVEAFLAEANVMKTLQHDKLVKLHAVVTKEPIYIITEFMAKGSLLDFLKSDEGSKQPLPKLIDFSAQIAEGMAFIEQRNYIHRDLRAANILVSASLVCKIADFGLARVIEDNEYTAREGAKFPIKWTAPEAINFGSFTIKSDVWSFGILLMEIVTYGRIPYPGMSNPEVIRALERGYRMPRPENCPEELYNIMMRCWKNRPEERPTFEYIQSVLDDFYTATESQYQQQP
T13 sequence (P35968 20-1356): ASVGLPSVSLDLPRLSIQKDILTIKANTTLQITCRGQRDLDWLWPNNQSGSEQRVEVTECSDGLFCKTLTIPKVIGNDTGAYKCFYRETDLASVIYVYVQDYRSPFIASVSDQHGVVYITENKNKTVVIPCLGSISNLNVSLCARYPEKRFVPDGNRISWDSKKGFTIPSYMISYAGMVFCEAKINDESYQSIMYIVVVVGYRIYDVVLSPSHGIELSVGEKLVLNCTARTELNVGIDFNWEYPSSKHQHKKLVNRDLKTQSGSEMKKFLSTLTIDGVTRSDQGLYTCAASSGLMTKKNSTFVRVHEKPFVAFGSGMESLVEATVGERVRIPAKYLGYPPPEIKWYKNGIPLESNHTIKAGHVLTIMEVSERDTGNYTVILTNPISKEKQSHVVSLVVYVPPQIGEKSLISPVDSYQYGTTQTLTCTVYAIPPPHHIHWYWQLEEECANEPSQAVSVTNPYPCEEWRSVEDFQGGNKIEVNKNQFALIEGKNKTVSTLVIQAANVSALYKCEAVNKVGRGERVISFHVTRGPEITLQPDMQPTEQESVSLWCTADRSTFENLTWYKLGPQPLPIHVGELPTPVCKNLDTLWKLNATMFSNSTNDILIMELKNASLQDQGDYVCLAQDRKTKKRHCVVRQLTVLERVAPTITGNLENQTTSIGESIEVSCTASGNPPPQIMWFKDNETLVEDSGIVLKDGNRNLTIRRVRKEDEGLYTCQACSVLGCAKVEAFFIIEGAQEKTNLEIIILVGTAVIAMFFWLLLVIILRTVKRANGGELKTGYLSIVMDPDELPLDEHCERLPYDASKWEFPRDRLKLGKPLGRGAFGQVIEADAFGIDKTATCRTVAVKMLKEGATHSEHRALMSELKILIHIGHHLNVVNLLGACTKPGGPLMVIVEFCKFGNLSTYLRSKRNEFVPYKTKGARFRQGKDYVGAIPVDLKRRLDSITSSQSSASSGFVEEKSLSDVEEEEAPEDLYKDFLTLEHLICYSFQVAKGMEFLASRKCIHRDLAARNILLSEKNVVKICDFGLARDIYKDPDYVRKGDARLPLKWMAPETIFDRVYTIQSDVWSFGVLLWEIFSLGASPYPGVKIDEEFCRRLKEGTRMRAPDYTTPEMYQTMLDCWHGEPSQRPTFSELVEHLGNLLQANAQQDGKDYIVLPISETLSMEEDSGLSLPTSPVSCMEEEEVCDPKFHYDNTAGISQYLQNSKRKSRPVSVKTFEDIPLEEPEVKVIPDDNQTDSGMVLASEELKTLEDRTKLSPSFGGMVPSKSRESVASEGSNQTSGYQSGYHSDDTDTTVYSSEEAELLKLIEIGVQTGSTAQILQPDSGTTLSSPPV
T12 sequence (P08069 31-1367): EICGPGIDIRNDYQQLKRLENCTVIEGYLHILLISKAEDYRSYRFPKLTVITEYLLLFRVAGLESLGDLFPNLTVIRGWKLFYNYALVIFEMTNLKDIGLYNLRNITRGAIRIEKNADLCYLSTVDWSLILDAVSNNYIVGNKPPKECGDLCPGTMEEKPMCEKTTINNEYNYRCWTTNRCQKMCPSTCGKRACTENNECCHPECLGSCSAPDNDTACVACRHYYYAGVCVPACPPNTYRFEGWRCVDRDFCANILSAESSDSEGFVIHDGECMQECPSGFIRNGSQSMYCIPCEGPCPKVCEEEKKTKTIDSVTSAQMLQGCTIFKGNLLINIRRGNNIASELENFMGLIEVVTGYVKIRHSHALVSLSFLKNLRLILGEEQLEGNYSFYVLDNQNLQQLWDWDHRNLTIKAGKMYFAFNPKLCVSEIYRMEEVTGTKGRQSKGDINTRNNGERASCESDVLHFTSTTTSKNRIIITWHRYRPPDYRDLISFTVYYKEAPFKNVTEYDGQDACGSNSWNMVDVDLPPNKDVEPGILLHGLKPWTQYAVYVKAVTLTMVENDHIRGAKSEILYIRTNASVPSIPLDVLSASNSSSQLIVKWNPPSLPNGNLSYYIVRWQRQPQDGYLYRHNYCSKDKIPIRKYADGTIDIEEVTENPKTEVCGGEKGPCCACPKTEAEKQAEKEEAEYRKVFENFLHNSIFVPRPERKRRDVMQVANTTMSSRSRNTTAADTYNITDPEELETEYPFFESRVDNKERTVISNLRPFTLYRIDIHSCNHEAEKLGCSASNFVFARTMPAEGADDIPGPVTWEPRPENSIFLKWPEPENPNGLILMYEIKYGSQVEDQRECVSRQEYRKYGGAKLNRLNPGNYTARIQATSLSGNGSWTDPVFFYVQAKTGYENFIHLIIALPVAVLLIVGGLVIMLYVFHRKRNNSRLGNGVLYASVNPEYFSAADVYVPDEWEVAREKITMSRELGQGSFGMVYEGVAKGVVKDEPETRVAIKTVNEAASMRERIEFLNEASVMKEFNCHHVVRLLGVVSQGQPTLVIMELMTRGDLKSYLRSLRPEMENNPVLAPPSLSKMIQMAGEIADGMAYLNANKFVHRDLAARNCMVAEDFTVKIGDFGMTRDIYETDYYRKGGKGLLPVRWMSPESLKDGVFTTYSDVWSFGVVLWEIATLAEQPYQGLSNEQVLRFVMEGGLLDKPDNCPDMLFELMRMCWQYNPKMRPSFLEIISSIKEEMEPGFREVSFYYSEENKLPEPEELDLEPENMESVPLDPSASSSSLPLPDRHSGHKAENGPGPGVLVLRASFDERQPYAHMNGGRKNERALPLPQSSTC
T21 sequence (P06241 whole entry, the tested form may be a part): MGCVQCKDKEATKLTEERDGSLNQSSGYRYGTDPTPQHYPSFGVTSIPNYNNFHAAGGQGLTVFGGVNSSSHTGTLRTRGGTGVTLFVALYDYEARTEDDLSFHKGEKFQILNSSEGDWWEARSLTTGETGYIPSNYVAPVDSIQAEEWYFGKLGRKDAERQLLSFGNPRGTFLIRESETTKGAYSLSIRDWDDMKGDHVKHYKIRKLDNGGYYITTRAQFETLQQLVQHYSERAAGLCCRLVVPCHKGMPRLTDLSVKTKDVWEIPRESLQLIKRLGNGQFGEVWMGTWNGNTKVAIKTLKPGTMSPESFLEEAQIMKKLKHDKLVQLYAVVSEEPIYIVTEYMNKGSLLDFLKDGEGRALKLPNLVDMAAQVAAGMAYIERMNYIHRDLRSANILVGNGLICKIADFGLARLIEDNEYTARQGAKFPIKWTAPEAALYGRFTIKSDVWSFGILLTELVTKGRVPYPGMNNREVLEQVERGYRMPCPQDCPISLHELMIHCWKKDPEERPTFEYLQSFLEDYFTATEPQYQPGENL
T1 sequence (Q02763 23-1124): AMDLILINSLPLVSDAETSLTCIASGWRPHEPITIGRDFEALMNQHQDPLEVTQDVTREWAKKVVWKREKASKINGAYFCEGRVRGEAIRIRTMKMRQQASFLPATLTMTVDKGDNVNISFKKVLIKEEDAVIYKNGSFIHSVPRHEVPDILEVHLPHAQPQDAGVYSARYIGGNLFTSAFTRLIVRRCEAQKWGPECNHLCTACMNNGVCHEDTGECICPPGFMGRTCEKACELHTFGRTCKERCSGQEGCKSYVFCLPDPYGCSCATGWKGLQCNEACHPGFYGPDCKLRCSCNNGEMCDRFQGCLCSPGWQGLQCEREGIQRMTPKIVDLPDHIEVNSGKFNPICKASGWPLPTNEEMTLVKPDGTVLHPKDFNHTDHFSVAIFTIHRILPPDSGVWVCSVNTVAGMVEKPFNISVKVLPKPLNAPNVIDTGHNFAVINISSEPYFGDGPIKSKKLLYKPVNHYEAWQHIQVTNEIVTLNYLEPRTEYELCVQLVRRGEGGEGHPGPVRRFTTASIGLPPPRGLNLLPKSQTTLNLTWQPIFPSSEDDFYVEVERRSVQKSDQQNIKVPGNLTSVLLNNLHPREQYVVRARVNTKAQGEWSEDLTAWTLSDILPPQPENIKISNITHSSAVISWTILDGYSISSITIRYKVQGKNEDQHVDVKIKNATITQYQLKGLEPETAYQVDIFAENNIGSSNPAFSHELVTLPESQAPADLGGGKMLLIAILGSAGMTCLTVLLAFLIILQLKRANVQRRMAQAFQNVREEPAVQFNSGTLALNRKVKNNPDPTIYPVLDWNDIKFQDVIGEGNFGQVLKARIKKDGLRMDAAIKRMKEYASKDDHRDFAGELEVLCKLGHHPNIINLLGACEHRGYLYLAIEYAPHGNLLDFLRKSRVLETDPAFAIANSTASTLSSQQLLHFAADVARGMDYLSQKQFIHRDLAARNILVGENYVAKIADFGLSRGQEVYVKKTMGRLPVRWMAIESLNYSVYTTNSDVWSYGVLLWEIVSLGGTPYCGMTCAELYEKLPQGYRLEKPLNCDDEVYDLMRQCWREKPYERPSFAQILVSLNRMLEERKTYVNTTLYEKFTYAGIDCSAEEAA

IC50 (Tek-1): 5 to 10 µM
IC50 (Hck-1): ≥ 10 µM
IC50 (ErbB2-1): ≥ 10 µM
IC50 (Lck-2): 1.5 to 5 µM
IC50 (Akt3-1): ≥ 10 µM
IC50 (ErbB4-1): ≥ 10 µM
IC50 (Src-1): 5 to 10 µM
IC50 (EGFR-1): ≥ 10 µM
IC50 (Itk-1): ≥ 10 µM
IC50 (FGFR1-1): < 1.5 µM
IC50 (Zap-1): 1.5 to 5 µM
IC50 (IGFR-1): < 1.5 µM
IC50 (KDR-1): < 1.5 µM
IC50 (PDGFRB): < 1.5 µM
IC50 (Met-1): 1.5 to 5 µM
IC50 (Flt1-1): < 1.5 µM
IC50 (Ret-1): < 1.5 µM
IC50 (Lck-1): 1.5 to 5 µM
IC50 (Lyn-1): 1.5 to 5 µM
IC50 (InsR-1): 1.5 to 5 µM
IC50 (Fyn-1): 5 to 10 µM
Compound: COc1cc(Nc2nccc(-n3c(=O)[nH]c4ccccc43)n2)cc(OC)c1OC [Compound 3]
